Results: patent publication US11458132B2, “Quinolin-2(1H)-one inhibitors of Late SV40 Factor” (TRUSTEES OF BOSTON UNIVERSITY, priority 2020, dated 2022)
Values belong to the compound of their own block, whether it stands above or below them.

What was measured:
FH-B cells = experiment: MTS cell proliferation assay; type: cell-based, human; settings: for GI50: Homo sapiens, FH-B cells, MTS assay, 72 hour treatment
Protocol: MTS Cell Proliferation Assay: Three thousand FH-B cells were seeded per well in a 96-well plate and incubated at 37° C. for 20 hours. Compound dilutions were prepared in DMSO and added to the cell culture media to a final DMSO concentration of 1% for a 72 hour treatment. Cell growth inhibition was assessed by measuring absorbance at 490 nm using the Promega CellTiter 96® AQueous One Solution Cell Proliferation Assay (Promega, G358C). Percent growth inhibition was determined by the ratio of the absorbance of treatment wells to the absorbance of control wells. A non-linear regression plot of the percentage of growth inhibition versus compound concentration was prepared using GraphPad Prism software, using settings for the curves of variable slope and four parameters. The relative GI50 value was determined from the curve as the concentration of drug that provokes a response halfway between the top and bottom plateaus of the curve.

RPE cells [1] = experiment: Cell spreading area and circularity by microscopy; type: cell-based
Protocol: Cells were washed as before, treated with Phalloidin-iFluor 488 Reagent (abcam, ab176753) for 1 hour in 1-5% BSA in PBS, followed by Hoechst 33342 (Thermo Fisher Scientific, H3570) for 5 minutes. Mounting medium (Fisher Scientific, P10144) and cover slips were applied onto dried cells. Individually discernible cells were imaged on an Olympus Fluoview 10i. Using ImageJ, the phalloidin channel was thresholded and area and circularity values were measured and integrated into swarmplots using Python's seaborn library.

[2] = system: RhoA/ROCK pathway in FH-B cells; experiment: Phospho-MLC2 immunoblot (RhoA/ROCK pathway); type: cell-based, human; settings: 4 μM FQI1, 10 minutes
Protocol: For analysis of phosphorylated MLC2, FH-B cells were treated as indicated in the figure legend, washed with PBS and incubated for 5 minutes in lysis buffer (50 mM Tris-HCl pH 8.0, 50 mM NaF, 5 mM MgCl2, 150 mM NaCl, 1% Triton X-100) supplemented with Tricine Sample Buffer (Bio-rad, 1610739), protease inhibitor cocktail (1:200), phosphatase inhibitor cocktail (1:100), and 1% ([…]. Lysates were incubated at 100° C. for 15 minutes and centrifuged at 21,000×g for 10 minutes prior to SDS-PAGE.
Gel electrophoresis and immunoblotting: Microtubule sedimentation fractions and MLC2 analysis samples were separated by electrophoresis through tris-glycine and tricine polyacrylamide gels, respectively, which were transferred to PVDF membranes. Membranes with microtubule sedimentation fractions and MLC2 analysis samples were blocked in 5% milk in TBST and in 5% BSA in TBST, respectively. After overnight incubation with primary antibody at 4° C., the membranes were washed and incubated with secondary antibody for 1 hour at room temperature. Primary antibodies included anti-α-tubulin (1:2,000, Thermo Fisher Scientific, PA529444), anti-acetylated tubulin (1:1,000, Sigma-Aldrich, T7451), anti-phospho MYL9 (1:200, Thermo Fisher Scientific, PA517727), and anti-β-actin (1:5,000, Sigma-Aldrich, A1978). […] Band intensities were quantified from scanned films by densitometry using ImageJ.

RPE cells [3] = experiment: Cell motility tracking; type: cell-based; settings: thymidine block, 4 μM FQI1; not statistically significant
Protocol: Cell motility tracking: After overnight seeding in high μ-dishes, cells were synchronized by incubating in 2 mM thymidine for 18-20 hours. Thereafter, cells were treated with 4 μM FQI1 or vehicle (0.01% DMSO) for 1 hour, followed by a 10-min incubation in NucSpot® Live 650 dye (Biotium, 40082) following the manufacturer's instructions. Subsequently, cells were imaged every 2 minutes for 2 hours in an environmental chamber of a Nikon C2 Si microscope at 37° C. and 5% CO2 at 20× magnification. Cells that underwent mitosis during the 2-hour period were excluded from the analysis. Using ImageJ, individual nuclei were monitored using the Manual Tracking tool and the distances between starting and end points were integrated into swarmplots using Python's seaborn library.

RPE cells [4] = experiment: Analysis of microtubule features by immunofluorescence; type: cell-based
Protocol: Analysis of microtubule features by immunofluorescence: Because Y-27632 diminishes FQI1-induced cell compaction (FIGS. 10C and 10D) without affecting microtubule levels (FIGS. 9A and 9B), cells were pretreated with Y-27632 in order to maintain overall cellular shape, facilitating capture of structural or positional impact of FQI1 on microtubules. In addition, only cells with cell spreading areas larger than 1000 μm^2 were considered. Cells were seeded overnight in high n-dishes, treated as indicated in the figure legends, fixed with formaldehyde as described above, blocked in 5% BSA in PBS and stained overnight at 4° C. with anti-γ-tubulin (1:500, Abcam, ab11316) and anti-α-tubulin (1:500, Fisher Scientific, 62204). Samples were then incubated in goat anti-rabbit Cy5 (1:1000, Invitrogen, A10523), goat anti-mouse Alexa Fluor 546 (1:1000, Thermo Fisher Scientific, A11003), and Phalloidin-iFluor 488 Reagent. Hoechst 33342 and mounting medium were applied, before acquiring Z stack images at 60× magnification on an Olympus Fluoview 10i microscope.
Using ImageJ, binary Z projections of Phalloidin and Hoechst channel stacks were merged with Z projections with average intensity of the α-tubulin channels. The Phalloidin channel was used as the region of interest for measurement of “integrated density” of the total α-tubulin intensity, which was plotted into swarmplots.
To assess distribution of visible microtubule ends, the Hoechst, γ-tubulin, and α-tubulin stacks were converted into Z projections with maximum intensity. The Hoechst and γ-tubulin Z projections were thresholded and all channels were merged. A line was generated between the γ-tubulin signal and the center of the nucleus to identify the axis of cell movement; a line perpendicular to the first line and running through the center point of the nucleus divided the cell into posterior and anterior portions. Visible microtubule ends were counted using the Cell Counter plugin, excluding unattached microtubule fragments.

[5] = Plasma protein binding (PPB), mouse; type: in vitro ADME

SMILES: CCOc1ccccc1C1CC(=O)Nc2cc3c(cc21)OCO3 (centres unmarked) [FQI1, 8-(2-ethoxyphenyl)-7,8-dihydro-[1,3]dioxolo[4,5-g]quinolin-6(5H)-one]
GI50 (FH-B cells): 2300 nM | cell spreading area (RPE cells [1]; 4 μM FQI1, 1 hour): did not respond to FQI1 with significant change in cell spreading area | circularity (RPE cells [1]; 4 μM FQI1 or 1 μM nocodazole, 1 hour): significantly more circular in shape | phosphorylation of MLC2 [2]: elevated | cell displacement over a 2-hour period (RPE cells [3]): clear trend towards motility being reduced | front-rear pattern of visible microtubule ends (RPE cells [4]; 4 μM FQI1): shifted to a more anterior distribution | overall α-tubulin intensity (RPE cells [4]; 4 μM FQI1, 10 minutes, Y-27632 pretreated): significant decrease in overall α-tubulin intensity | increase in the number of individually discernible microtubule ends (RPE cells [4]; 4 μM FQI1, 10 minutes, vs vehicle): 2.5 fold

fraction unbound [5]: 0.07
SMILES: CCOc1cc(N(C)C)ccc1-c1cc(=O)[nH]c2cc3c(cc12)OCO3 [FQI2-34, 8-(4-(dimethylamino)-2-ethoxyphenyl)-[1,3]dioxolo[4,5-g]quinolin-6(5H)-one]
fold higher efficacy than FQI1 in inhibiting proliferation of FH-B cells (FH-B cells): 17 fold | GI50 (FH-B cells): 140 nM
